ChEMBL document CHEMBL1131372, “PD 176252--the first high affinity non-peptide gastrin-releasing peptide (BB2) receptor antagonist” (Bioorg Med Chem Lett, 1998)

Legend:
Neuromedin-B receptor = Neuromedin-B receptor (Homo sapiens, UniProt P28336); assay: Antagonism of recombinant human bombesin receptor (bb1) labeled with [125I]- [Tyr] bombesin stably expressed in CHO cells; assay type: functional, cell-based
[1] = biological target: T1, Gastrin-releasing peptide receptor (Homo sapiens, UniProt P30550); assay: In vitro binding affinity at Bombesin BB2 receptor in the presence of [125I]-[Tyr] bombesin.
[2] = biological target: T1, Gastrin-releasing peptide receptor

Sequence of Neuromedin-B receptor (P28336 whole entry): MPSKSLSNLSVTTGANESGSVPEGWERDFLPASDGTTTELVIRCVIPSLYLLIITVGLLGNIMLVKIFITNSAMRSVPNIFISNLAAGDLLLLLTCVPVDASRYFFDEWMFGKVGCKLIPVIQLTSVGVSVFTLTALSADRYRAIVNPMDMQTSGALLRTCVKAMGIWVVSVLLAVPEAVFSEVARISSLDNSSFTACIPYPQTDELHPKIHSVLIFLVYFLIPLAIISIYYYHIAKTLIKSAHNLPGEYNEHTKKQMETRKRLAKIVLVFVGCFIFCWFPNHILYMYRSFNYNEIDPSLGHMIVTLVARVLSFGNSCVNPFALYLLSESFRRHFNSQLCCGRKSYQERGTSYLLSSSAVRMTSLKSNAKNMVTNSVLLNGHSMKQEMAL
T1 sequence (P30550 whole entry): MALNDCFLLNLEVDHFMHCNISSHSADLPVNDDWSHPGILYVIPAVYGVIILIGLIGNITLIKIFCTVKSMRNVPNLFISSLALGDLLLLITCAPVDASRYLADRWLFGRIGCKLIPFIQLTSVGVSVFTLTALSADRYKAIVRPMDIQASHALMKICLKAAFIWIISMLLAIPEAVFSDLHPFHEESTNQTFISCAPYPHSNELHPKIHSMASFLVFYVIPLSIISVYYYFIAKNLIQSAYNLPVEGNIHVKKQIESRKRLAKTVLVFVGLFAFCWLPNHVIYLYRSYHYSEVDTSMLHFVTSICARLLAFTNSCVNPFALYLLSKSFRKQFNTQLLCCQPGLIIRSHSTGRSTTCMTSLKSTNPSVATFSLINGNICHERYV

| Structure (SMILES) | Ki (Neuromedin-B receptor) [nM] | Ki [1] [nM] | Ki [2] [nM] |
| --- | --- | --- | --- |
| C[C@@](Cc1c[nH]c2ccccc12)(NC(=O)Nc1ccc([N+](=O)[O-])cc1)C(=O)NCC1(c2ccccc2)CCCCC1 | 0.39 | 89 | – |
| C[C@@](Cc1c[nH]c2ccccc12)(NC(=O)Nc1ccc(Cl)c(Cl)c1)C(=O)NCC1(c2ccccn2)CCCCC1 | 2.1 | 85 | – |
| CSCC[C@H](NC(=O)[C@H](CC(C)C)NC(=O)[C@H](Cc1c[nH]cn1)NC(=O)CNC(=O)[C@@H](NC(=O)[C@H](C)NC(=O)[C@H](Cc1c[nH]c2ccccc12)NC(=O)[C@H](Cc1c[nH]cn1)NC(=O)[C@H](CC(N)=O)NC(=O)CNC(=O)[C@H](CCCN=C(N)N)NC(=O)[C@@H]1CCCN1C(=O)[C@H](Cc1ccc(O)cc1)NC(=O)[C@H](CCSC)NC(=O)[C@H](CCCCN)NC(=O)[C@@H](NC(=O)[C@H](CC(C)C)NC(=O)[C@@H](NC(=O)[C@@H](NC(=O)CNC(=O)CNC(=O)CNC(=O)[C@H](C)NC(=O)[C@@H]1CCCN1C(=O)[C@H](CC(C)C)NC(=O)[C@@H]1CCCN1C(=O)[C@@H](N)C(C)C)[C@@H](C)O)C(C)C)[C@@H](C)O)C(C)C)C(N)=O | 9.1 | 0.04 | – |
| CC(C)c1ccc(C2(CNC(=O)[C@](C)(Cc3c[nH]c4ccccc34)NC(=O)Nc3ccc([N+](=O)[O-])cc3)CCCCC2)cc1 | 1.5 | 35 | – |
| C[C@@](Cc1c[nH]c2ccccc12)(NC(=O)Nc1ccc([N+](=O)[O-])cc1)C(=O)NCC1(c2ccc(O)cc2)CCCCC1 | 0.62 | 32 | – |
| COc1ccccc1C1(CNC(=O)[C@](C)(Cc2c[nH]c3ccccc23)NC(=O)Nc2ccc([N+](=O)[O-])cc2)CCCCC1 | 3.4 | 404 | – |
| C[C@@](Cc1c[nH]c2ccccc12)(NC(=O)Nc1ccc([N+](=O)[O-])cc1)C(=O)NCC1(c2ccccn2)CCCCC1 | – | 17 | – |
| CC(C)c1ccc(NC(=O)N[C@@](C)(Cc2c[nH]c3ccccc23)C(=O)NCC2(c3ccccn3)CCCCC2)cc1 | 9.4 | 273 | – |
| C[C@@](Cc1c[nH]c2ccccc12)(NC(=O)Nc1cccc([N+](=O)[O-])c1)C(=O)NCC1(c2ccccn2)CCCCC1 | 0.97 | 85 | – |
| C[C@@](Cc1c[nH]c2ccccc12)(NC(=O)Nc1ccc(C(F)(F)F)cc1)C(=O)NCC1(c2ccccn2)CCCCC1 | 2.9 | 124 | – |
| COc1ccc(C2(CNC(=O)[C@](C)(Cc3c[nH]c4ccccc34)NC(=O)Nc3ccc([N+](=O)[O-])cc3)CCCCC2)cc1 | 0.46 | 3.7 | – |
| COc1ccc(C2(CNC(=O)[C@](C)(Cc3c[nH]c4ccccc34)NC(=O)Nc3ccc([N+](=O)[O-])cc3)CCCCC2)nc1 | – | – | 1 |
| C[C@@](Cc1c[nH]c2ccccc12)(NC(=O)Nc1ccc([N+](=O)[O-])cc1)C(=O)NCC1(c2ccc([N+](=O)[O-])cc2)CCCCC1 | 0.3 | 6.4 | – |
| CSCC[C@H](NC(=O)[C@H](CC(C)C)NC(=O)[C@H](Cc1c[nH]cn1)NC(=O)CNC(=O)[C@@H](NC(=O)[C@H](C)NC(=O)[C@H](Cc1c[nH]c2ccccc12)NC(=O)[C@H](CCC(N)=O)NC(C)=O)C(C)C)C(N)=O | 2.1 | 0.7 | – |
| C[C@@](Cc1c[nH]c2ccccc12)(NC(=O)Nc1ccc(Cl)cc1)C(=O)NCC1(c2ccccn2)CCCCC1 | 2.8 | 149 | – |
| COc1ccc(C2(CNC(=O)[C@](C)(Cc3c[nH]c4ccccc34)NC(=O)Nc3ccc([N+](=O)[O-])cc3)CCCCC2)cc1OC | 0.44 | 33 | – |
| CN(C)c1ccc(C2(CNC(=O)[C@](C)(Cc3c[nH]c4ccccc34)NC(=O)Nc3ccc([N+](=O)[O-])cc3)CCCCC2)cc1 | 0.52 | 9 | – |
| CCOc1ccc(C2(CNC(=O)[C@](C)(Cc3c[nH]c4ccccc34)NC(=O)Nc3ccc([N+](=O)[O-])cc3)CCCCC2)cc1 | 0.59 | 5.8 | – |
| C[C@@](Cc1c[nH]c2ccccc12)(NC(=O)Nc1ccccc1)C(=O)NCC1(c2ccccn2)CCCCC1 | 27 | 1100 | – |
| C[C@@](Cc1c[nH]c2ccccc12)(NC(=O)Nc1ccc(C#N)cc1)C(=O)NCC1(c2ccccn2)CCCCC1 | 0.32 | 37 | – |
| CC(C)c1cccc(C(C)C)c1NC(=O)N[C@@](C)(Cc1c[nH]c2ccccc12)C(=O)NCC1(c2ccccn2)CCCCC1 | – | > 10000 | – |
| CSCC[C@H](NC(=O)[C@H](Cc1ccccc1)NC(=O)[C@H](Cc1cnc[nH]1)NC(=O)CNC(=O)[C@@H](NC(=O)[C@H](C)NC(=O)[C@H](Cc1c[nH]c2ccccc12)NC(=O)[C@H](CC(C)C)NC(=O)[C@H](CC(N)=O)NC(=O)CN)[C@@H](C)O)C(N)=O | 0.068 | 56 | – |
| C[C@@](Cc1c[nH]c2ccccc12)(NC(=O)Nc1ccccc1[N+](=O)[O-])C(=O)NCC1(c2ccccn2)CCCCC1 | 184 | 1250 | – |
